According to US8815891B2, “Tricyclic derivative or pharmaceutically acceptable salts thereof, preparation method thereof, and pharmaceutical composition containing the same” (Je Il Pharmaceutical Co., Ltd., priority 2008, dated 2014):
Structures can show the parent of a compound that is named as a salt.

Experiments:
PARP-1 enzyme = PARP-1 enzyme (Homo sapiens (Human), UniProt P09874); experiment: Poly(ADP-ribose)polymerase [PARP-1] enzyme inhibitory activity (Trevigen PARP Assay kit); assay type: biochemical; conditions: read-out: PARP-1 Inhibitory activity IC50
Chain of PARP-1 enzyme (P09874 whole entry): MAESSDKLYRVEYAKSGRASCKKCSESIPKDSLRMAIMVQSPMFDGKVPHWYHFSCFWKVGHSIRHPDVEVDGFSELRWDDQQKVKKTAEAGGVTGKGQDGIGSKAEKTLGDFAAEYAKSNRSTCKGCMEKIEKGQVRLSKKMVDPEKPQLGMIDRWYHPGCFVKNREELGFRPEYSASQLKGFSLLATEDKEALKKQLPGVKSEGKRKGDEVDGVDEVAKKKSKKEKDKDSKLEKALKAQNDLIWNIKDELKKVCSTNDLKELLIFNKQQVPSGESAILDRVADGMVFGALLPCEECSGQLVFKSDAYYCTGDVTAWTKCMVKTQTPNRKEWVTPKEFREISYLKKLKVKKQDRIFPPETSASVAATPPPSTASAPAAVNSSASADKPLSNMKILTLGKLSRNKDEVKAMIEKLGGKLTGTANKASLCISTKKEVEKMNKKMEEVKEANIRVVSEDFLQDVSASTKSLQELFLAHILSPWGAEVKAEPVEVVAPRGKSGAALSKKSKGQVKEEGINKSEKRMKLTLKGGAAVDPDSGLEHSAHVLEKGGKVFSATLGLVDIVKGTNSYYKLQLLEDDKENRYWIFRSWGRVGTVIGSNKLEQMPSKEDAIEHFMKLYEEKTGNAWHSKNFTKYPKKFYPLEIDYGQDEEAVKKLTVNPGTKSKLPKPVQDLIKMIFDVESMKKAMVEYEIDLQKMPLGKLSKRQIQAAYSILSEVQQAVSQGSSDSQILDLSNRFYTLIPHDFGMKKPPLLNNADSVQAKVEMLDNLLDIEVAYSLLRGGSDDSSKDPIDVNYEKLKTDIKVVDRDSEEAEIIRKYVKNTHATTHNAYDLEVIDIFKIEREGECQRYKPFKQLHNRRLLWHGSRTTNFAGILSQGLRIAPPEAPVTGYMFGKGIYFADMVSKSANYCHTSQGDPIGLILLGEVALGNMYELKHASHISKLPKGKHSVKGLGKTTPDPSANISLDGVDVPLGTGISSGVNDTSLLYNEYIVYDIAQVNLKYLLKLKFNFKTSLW
How it was run: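 On histone-coated plates, PARP-1 (0.12 unit/well) reacted with compound for 30 min at 25 °C in a 2× cocktail of 1.95 mM NAD+, 50 μM biotinylated NAD+ and activated DNA (Tris pH 8.0, 25 mM MgCl2). Biotin-ribosylated histone was detected with streptavidin-HRP and TACS-Sapphire substrate, stopped with HCl and read at 450 nm.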

A549 cell line = experiment: Cell growth inhibition of cancer cell lines (SRB assay), A549; assay type: cell-based
Method: (§1) The tests on cell growth inhibitory activity were performed with respect to A549 (US, ATCC), SK-OV-3 (Korea Research Institute of Chemical Technology; KRICT), HT-29 (US, ATCC), MCF-7 cell (US, ATCC), using Sulforhodamin-B <SRB> Assay (1989, US National Cancer Institute (NCI)) which was developed to measure the in vitro anti-cancer activity of the drug. […] The samples of the compounds of the Examples according to the present invention were used for the tests, and before the tests, the samples were dissolved in dimethylsulfoxide and diluted with the culture medium (RPMI 1640) to be used. The final concentration of the sample was varied in the range of 0.3˜100 μM. After the culture medium was removed from the 96 well plates, the diluted sample solution was added by 100 μl, and cultured in 37° C., 5% CO2 culture medium for 72 hours. The time zero (Tz) plates were collected at the time point of adding the sample. Upon completing the culture, the medium was removed from each well along with Tz plate, then cold 10% trichloroacetic acid (TCA) was added by 100 μl per well. The wells were left at 4° C. for 1 hour, so that the cells were fixed into the bottom of the plates. After the cells were fixed, the plates were rinsed with water five to six times to remove the remaining trichloroacetic acid solution, and moisture was completely dried at room temperature. The cells were dyed for 30 minutes by adding the dye solution in which 0.4% sulforhodamine-B was dissolved in 1% acetic acid solution, by 100 μl per dried wells. The above was rinsed again with 1% acetic acid solution five to six times to ensure that sulforhodamine-B which had not attached to the cells was removed. The plates were again dried at room temperature. 100 μl of 10 mM tris-buffer was then added to dissolve the dye, and the optical density (OD) at 520 nm was measured with the microplate reader. GI50 of the sample regarding cancer cell was calculated as explained below. Time zero (Tz), control value (C) and test value (T) were obtained, in which Tz corresponds to OD value of time at which the sample is applied and culture is started, C corresponds to OD value of the well which is cultured without treatment with the sample, and T corresponds to OD value of the well which is treated with the sample and then cultured. The degree of cell growth inhibition of the sample was measured using: If […] [Mathematical Formula 1]
(§2) Further, the ability of Examples 2, 42, 49, 52, 72, 74, 101 to increase growth inhibition effect of temozolomide and SN-38 at 2 μM was determined.

SK-OV-3 Cell line = experiment: Cell growth inhibition of cancer cell lines (SRB assay), SK-OV-3; assay type: cell-based
Method: as §1, §2

SMILES: COc1cc(CN2CCOCC2)cc2[nH]c(=O)c3c(c12)NCCC3 [Example 74, 10-Methoxy-8-(morpholinomethyl)-1,2,3,4-tetrahydrobenzo[h][1,6]naphthyridine-5(6H)-one dihydrochloride]
- IC50 (PARP-1 enzyme): 0.23 µM
- SN-38 PF50 (A549 cell line; 2 μM compound, GI50 SN-38 alone / GI50 with compound): 2.2
- Temozolomide PF50 (A549 cell line; 2 μM compound, GI50 temozolomide alone / GI50 with compound): 3.2
- GI50 (A549 cell line; Homo sapiens, 72 hours): 75 µM
- SN-38 PF50 (SK-OV-3 Cell line; 2 μM compound): 2.2
- Temozolomide PF50 (SK-OV-3 Cell line; 2 μM compound): >5.0
- GI50 (SK-OV-3 Cell line; Homo sapiens, 72 hours): 52 µM
